This note sets out measurements from article PMC9652372, “Glycolytic flux control by drugging phosphoglycolate phosphatase” (Nature Communications, 2022).

The target in one experiment is T1, murine PGP^C297S (Mus musculus, UniProt Q8CHP8, C297S).
T1 construct: His6 (N, cleaved yes); made in house; host or cells: Escherichia coli BL21 (DE3)
T1 sequence (Q8CHP8 1-321 C297S): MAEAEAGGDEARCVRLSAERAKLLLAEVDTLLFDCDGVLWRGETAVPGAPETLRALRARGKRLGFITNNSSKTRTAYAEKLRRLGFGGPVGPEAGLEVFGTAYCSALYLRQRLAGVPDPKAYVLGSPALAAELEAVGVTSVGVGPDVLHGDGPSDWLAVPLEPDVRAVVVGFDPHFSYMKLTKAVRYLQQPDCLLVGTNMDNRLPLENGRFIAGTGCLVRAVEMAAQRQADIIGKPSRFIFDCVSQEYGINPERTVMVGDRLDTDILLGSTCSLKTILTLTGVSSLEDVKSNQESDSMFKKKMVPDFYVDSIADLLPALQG
Nature of the experiment: IC50 determination, PGP^C297S, PG dephosphorylation. The class given is biochemical. Here is the method: . […] Data were analyzed with GraphPad Prism 7.04.
Supplementary Figure 3 (related to Figure 2): Characterization of the homodimeric PGP variant PGPC297S. (a) In vitro phosphatase activity of purified murine PGPC297S in comparison to purified murine PGPWT, using 2- phosphoglycolate (PG) as substrate. (b) Determ ination of […]
CP1. PG dephosphorylation was quantified using malachite green. All data in (a) and (b) are mean values ± S.E.M of n=3 independent experiments. Error bars not shown are hidden by the symbols. (c) PGP self-association in the absence or presence of CP1. Size- exclusion chromatography (SEC) of purified, recombinant murine PGP-WT in comparison to PGP-C297 […]
(1 picture or pasted object on this page, not shown here)

The next experiment concerns the target T2, NANP/HDHD4 (Mus musculus, UniProt Q9CPT3).
T2 construct: made in house; host or cells: Escherichia coli BL21 (DE3), pETM11 (cDNA from Origene #MR203153)
T2 sequence (Q9CPT3 1-248): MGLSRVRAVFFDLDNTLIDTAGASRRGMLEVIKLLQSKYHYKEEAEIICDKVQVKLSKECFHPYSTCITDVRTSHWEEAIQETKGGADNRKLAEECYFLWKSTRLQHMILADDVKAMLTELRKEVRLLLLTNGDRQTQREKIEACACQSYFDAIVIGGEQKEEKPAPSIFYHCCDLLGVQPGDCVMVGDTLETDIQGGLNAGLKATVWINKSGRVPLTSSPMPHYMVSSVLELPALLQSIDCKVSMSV
Nature of the experiment: In vitro phosphatase activity assay, NANP/HDHD4 (6-phosphogluconate). The class given is biochemical, murine. The following applies: NANP activity on 6-phosphogluconate. The text has this:
The following phosphatase constructs (in pCMV6) were purchased from Origene: murine LHPP (NM_029609; catalog #MC211738), murine LPIN1, transcript variant 2 (NM_015763, #MC204460), murine MDP1 (NM_023397, #MR201315), murine […]_026086, #MR203153), murine NT5C (NM_015807, #MR202028), human NT5M (NM_020201, #RC207737), murine PNKP (NM_021549, #MR207938), and murine PSPH (NM_133900, #MR202626). Purified human NT5C1A (NM_032526, #TP324617) and purified human PHOSPHO1 (NM_178500, #TP314434) were from Origene. The murine PHOSPHO2 construct (in pFLCI) was from Source BioScience (clone ID: I420023L04). Calf intestinal alkaline phosphatase (CIP) was from NEB. Purified, recombinant human calcineurin (PP2B) and human PTP1B (residues 1-322) were from Millipore (#207005 or #539736, respectively). […] The 3'-P-oligonucleotide 5'-[NT]^3-]-3' was used as a PNKP substrate. […] Data were analyzed with GraphPad Prism 7.04. […] (c) Upper panel, purity of the tested, recombinant phosphatases (10 μg of protein/lane). A Coomassie Blue-stained gel is shown. Tested enzymes that are not included in this panel were obtained commercially. Lower panel , Western blots showing the overexpression of the myc-tagged cytosolic 5', 3'-nucleotidase NT5C and mitochondrial 5', 3'-nucleotidase NT5M in HEK293 cells (uncropped blots in Source Data). […] Error bars not shown are hidden by the symbols. […]

The IC50 is the point on the concentration scale where inhibition reaches its midpoint. High values mean lower potency, low ones higher potency.

In the case of `O=C(Nc1ccccc1C(=O)O)c1ccc(Oc2ccc(C(=O)Nc3ccccc3C(=O)O)cc2)cc1` [CP1], the IC50 on murine PGP^C297S (PGP^C297S, substrate PG) is approximately 250 nM. Moreover, on murine PGP^C297S (read-out: PGP-C297S activity in presence of CP1 relative to DMSO control, CP1 log[M] -5.60206), the remaining activity at […] is 6.31%. The remaining activity at 1.25 µM at murine PGP^C297S (read-out: PGP-C297S activity in presence of CP1 relative to DMSO control, CP1 log[M] -5.90309) is 12.6%. In addition, the remaining activity at 0.3125 µM at murine PGP^C297S (read-out: PGP-C297S activity in presence of CP1 relative to DMSO control, CP1 log[M] -6.50515) stood at 44.1%. The remaining activity at 0.15625 µM on murine PGP^C297S (read-out: PGP-C297S activity in presence of CP1 relative to DMSO control, CP1 log[M] -6.80618) was determined as 56.8%. Further, on murine PGP^C297S (read-out: PGP-C297S activity in presence of CP1 relative to DMSO control, CP1 log[M] -7.10721), the remaining activity at 0.078125 µM was found to be 72.1%. Besides, at murine PGP^C297S (read-out: PGP-C297S activity in presence of CP1 relative to DMSO control, CP1 log[M] -7.40824), the remaining activity at 0.03906 µM turned out to be 75.7%. The remaining activity at 0.01953 µM on murine PGP^C297S (read-out: PGP-C297S activity in presence of CP1 relative to DMSO control, CP1 log[M] -7.70927) stood at 90.1%.

As to `COc1ccc(C(=O)Nc2ccc(Cc3ccc(NC(=O)c4ccc(OC)c(OC)c4)c(C(=O)O)c3)cc2C(=O)O)cc1OC` [CP2], the half-inhibitory concentration (IC50) on NANP/HDHD4 is approximately 1000 nM.
